Our source for the IC50 values is publication PMC12736086, “Synthesis and In Vitro Evaluation of Anticancer Activity of Fluorophenyl Derivatives of 1,3,4-Thiadiazole Against Estrogen-Dependent Breast Cancer” (Molecules, 2025).

One assay concerns MCF-7 cell line. Further details: method as in PMID 35335177. Conditions: MCF-7, previous study; cited from earlier work.
The next assay deals with human fibroblasts (HMF). In words: MTT assay, cell viability of normal HMF fibroblasts. The format is cell-based. As to conditions: Fibroblast, 24 h, 24 h exposure. On the procedure:
(§1) To investigate how the tested compounds affect cell viability, experiments were performed using two human breast cancer cell lines—MDA-MB-231 and MCF-7 and human fibroblasts—HMF (normal cells). The MDA-MB-231 cell line represents a highly invasive, triple-negative breast cancer (TNBC) model, lacking estrogen receptor (ER), progesterone receptor (PR), and HER2 expression. In contrast, MCF-7 cells are estrogen receptor-positive (ER+), less invasive, and hormone-responsive, making them a well-established model for luminal-type breast cancer and hormone therapy research. Anastrozole, an aromatase inhibitor, served as a reference drug. The MTT assay applied in this study relies on mitochondrial dehydrogenase enzymes to reduce a water-soluble […] tetrazolium salt (3-(4,5-dimethylthiazol-2-yl)-2,5-diphenyltetrazolium bromide, or MTT) into a dark blue, insoluble formazan compound. The amount of this formazan product formed is directly related to the mitochondrial activity of viable, metabolically active cells in the sample. The efficacy of the compounds was assessed based on IC50 values and analysis of the concentration-dependence of cell survival.
(§2) The experiments were conducted using MDA-MB-231 and MCF-7 human breast cancer cell lines, as well as human fibroblasts (HMF). All cell lines were sourced from the American Type Culture Collection (ATCC; Manassas, VA, USA). Cells were maintained under standard culture conditions (37 °C, 5% CO2). Breast cancer cells were grown in Dulbecco’s Modified Eagle Medium (DMEM) supplemented with 10% fetal bovine serum (FBS), while fibroblasts were cultured in Eagle’s Minimum Essential Medium (EMEM) with the same serum concentration. To prevent microbial contamination, penicillin (100 U/mL) and streptomycin (100 µg/mL) were added to the media. All cell culture reagents were obtained from Sigma Aldrich (St. Louis, MO, USA).
(§3) Cell viability was evaluated using the MTT assay kit (Sigma Aldrich, St. Louis, MO, USA). On day one of the experiment, MCF-7, MDA-MB-231 cells and human fibroblasts were seeded into 96-well culture plates (Nunc, Roskilde, Denmark) at a density of 1 × 10^5 cells/mL (human fibroblast cell line) and 5 × 10^4 cells/mL (MCF-7, MDA-MB-231 cell lines). After 24 h of incubation, the culture medium was removed and replaced with serial dilutions of test compounds or anastrozole (1, 12.5, 25, 50, 100 µM). Control wells received fresh medium only. Cells were incubated for another 24 h under standard conditions. Following this, 15 µL of MTT solution (5 mg/mL) was added to each well and incubated for 3 h. Afterward, a 10% sodium dodecyl sulfate (SDS) solution was added, and the plates were left overnight. On the following day, absorbance was measured at 570 nm using a microplate reader (Epoch, BioTek Instruments, Inc., Winooski, VT, USA) with Gen5 software (version 2.01, BioTek Instruments).
(§4) Data were analyzed using GraphPad software version 5.01 (GraphPad Software, Inc., La Jolla, CA, USA). Results are expressed as means ± standard deviation (±SD). IC50 values were calculated using the IC50 calculator provided by AAT Bioquest.

Assay [1] deals with MDA-MB-231 (triple-negative) breast cancer cell line. In words: MTT assay, cell viability of MDA-MB-231 cells. The format is cell-based, human. Conditions: 24 h exposure. On the procedure: as §1, §2, §3, §4
Assay [2] has as its system MCF-7 (estrogen-dependent) breast cancer cell line. The assay can be described thus: MTT assay, cell viability of MCF-7 cells. The format is cell-based. As to conditions: Homo sapiens, MCF7, 24 h, 24 h exposure. The procedure:
as §1, §2, §3, §4

Molecules are shown by their SMILES. A value given as a limit tells only on which side of the number the result lay.

Take `COc1cccc(-c2nnc(Nc3ccccc3C(F)(F)F)s2)c1` [2-(2-trifluoromethylphenylamino)-5-(3-methoxyphenyl)-1,3,4-thiadiazole]: the IC50 in the assay on MCF-7 cell line is 49.6 µM.
Regarding `Fc1cccc(-c2nnc(Nc3ccccc3I)s2)c1` [A1, 5-(3-Fluorophenyl)-2-(2-iodophenylamino)-1,3,4-thiadiazole], the IC50 is 51 µM in the assay on human fibroblasts (HMF); over 100 µM in assay [1] (Homo sapiens, MDA-MB-231, 24 h); 66 µM in assay [2].
On to `Fc1cccc(-c2nnc(Nc3ccccc3Br)s2)c1` [A2, 2-(2-Bromophenylamino)-5-(3-fluorophenyl)-1,3,4-thiadiazole], for which the IC50 in the assay with human fibroblasts (HMF) is 36.5 µM; in assay [1] (Homo sapiens, MDA-MB-231, 24 h), over 100 µM; in assay [2], 52.4 µM.
Regarding `Fc1cccc(-c2nnc(Nc3ccccc3Cl)s2)c1` [A3, 2-(2-Chlorophenylamino)-5-(3-fluorophenyl)-1,3,4-thiadiazole], the IC50 is 36.9 µM in the assay on human fibroblasts (HMF); over 100 µM in assay [1] (Homo sapiens, MDA-MB-231, 24 h); 54.8 µM in assay [2].
As for `CC(C)(C#N)c1cc(Cn2cncn2)cc(C(C)(C)C#N)c1` [Anastrozole, reference compound], the IC50 in the assay on human fibroblasts (HMF) is over 100 µM; in assay [1], over 100 µM; in assay [1] (Homo sapiens, MDA-MB-231, 24 h), at least 100 µM; in assay [2], over 100 µM.
For the compound `Fc1ccc(-c2nnc(Nc3ccccc3I)s2)cc1` [B1, 5-(4-Fluorophenyl)-2-(2-iodophenylamino)-1,3,4-thiadiazole], the IC50 with human fibroblasts (HMF) is 45.6 µM; in assay [1] (Homo sapiens, MDA-MB-231, 24 h), over 100 µM; in assay [2] it was 53.9 µM.
Taken in the same sequence, the figures for `Fc1ccc(-c2nnc(Nc3ccccc3Br)s2)cc1` [B2, 2-(2-Bromophenylamino)-5-(4-fluorophenyl)-1,3,4-thiadiazole] were 41.8 µM, over 100 µM and 82.5 µM.
As to `Fc1ccc(-c2nnc(Nc3ccccc3Cl)s2)cc1` [B3, 2-(2-Chlorophenylamino)-5-(4-fluorophenyl)-1,3,4-thiadiazole], the IC50 was over 100 µM in the assay on human fibroblasts (HMF); over 100 µM in assay [1] (Homo sapiens, MDA-MB-231, 24 h); 54.1 µM in assay [2].
